Measurements reported in ChEMBL document CHEMBL5465560, “Selectivity Literature for EUbOPEN Chemogenomic Library” (2024).

Experiments:
[1] = biological target: T1, Histone-lysine N-methyltransferase SETD7 (Homo sapiens) (UniProt Q8WTS6); assay: Selectivity interaction (Methyltransferase screen (radiometric assays, panel of 8 PRMTs, 21 protein lysine methyltransferases, 3 DNA methyltransferases, and one RNA methyltransferase)) EUB0000271b SETD7
T1 sequence (whole entry): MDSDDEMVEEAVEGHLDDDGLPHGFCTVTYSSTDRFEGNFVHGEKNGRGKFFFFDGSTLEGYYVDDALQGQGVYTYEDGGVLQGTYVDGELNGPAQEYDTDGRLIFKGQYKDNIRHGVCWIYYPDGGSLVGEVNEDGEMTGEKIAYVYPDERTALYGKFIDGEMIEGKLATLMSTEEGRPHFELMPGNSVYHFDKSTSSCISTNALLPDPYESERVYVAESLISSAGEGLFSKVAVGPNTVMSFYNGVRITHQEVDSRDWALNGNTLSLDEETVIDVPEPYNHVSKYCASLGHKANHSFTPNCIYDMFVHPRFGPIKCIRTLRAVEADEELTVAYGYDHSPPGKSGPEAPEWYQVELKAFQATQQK

[2] = biological target: Histone-lysine N-methyltransferase SETDB1 (Homo sapiens) (UniProt Q15047); assay: Selectivity interaction (Methyltransferase screen (radiometric assays, panel of 8 PRMTs, 21 protein lysine methyltransferases, 3 DNA methyltransferases, and one RNA methyltransferase)) EUB0000271b SETDB1
[3] = biological target: Platelet-derived growth factor receptor alpha (Homo sapiens, UniProt P16234); assay: Selectivity interaction (KinomeScan (DiscoverX)) EUB0000655a PDGFRA; settings: at 10 µM
[4] = biological target: T2, Proto-oncogene tyrosine-protein kinase Src (Homo sapiens, UniProt P12931); assay: Selectivity interaction (KinomeScan (DiscoverX)) EUB0000655a SRC; settings: at 10 µM
T2 sequence (P12931 2-536 limits assumed): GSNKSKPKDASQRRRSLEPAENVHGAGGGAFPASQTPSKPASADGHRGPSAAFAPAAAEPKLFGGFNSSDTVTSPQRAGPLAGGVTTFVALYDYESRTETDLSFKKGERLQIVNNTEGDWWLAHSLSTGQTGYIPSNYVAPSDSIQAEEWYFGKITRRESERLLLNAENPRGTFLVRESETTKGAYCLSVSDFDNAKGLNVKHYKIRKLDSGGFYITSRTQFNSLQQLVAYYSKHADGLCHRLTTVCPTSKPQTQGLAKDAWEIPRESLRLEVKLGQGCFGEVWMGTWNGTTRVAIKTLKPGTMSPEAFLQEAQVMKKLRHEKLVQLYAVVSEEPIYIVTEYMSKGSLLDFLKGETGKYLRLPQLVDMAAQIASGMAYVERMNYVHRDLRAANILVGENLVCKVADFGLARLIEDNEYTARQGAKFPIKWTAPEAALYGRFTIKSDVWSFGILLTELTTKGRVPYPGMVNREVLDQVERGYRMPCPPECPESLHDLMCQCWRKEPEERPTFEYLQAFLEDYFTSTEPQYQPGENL

[5] = test system: Epidermal growth factor receptor (Homo sapiens), P00533 [UNDEFINED MUTATION]; assay: Selectivity interaction (KinomeScan (DiscoverX)) EUB0000045b EGFR; settings: at 1 µM
Chain of Epidermal growth factor receptor (Homo sapiens), P00533 [UNDEFINED MUTATION] (P00533 whole entry, looked up, change not shown): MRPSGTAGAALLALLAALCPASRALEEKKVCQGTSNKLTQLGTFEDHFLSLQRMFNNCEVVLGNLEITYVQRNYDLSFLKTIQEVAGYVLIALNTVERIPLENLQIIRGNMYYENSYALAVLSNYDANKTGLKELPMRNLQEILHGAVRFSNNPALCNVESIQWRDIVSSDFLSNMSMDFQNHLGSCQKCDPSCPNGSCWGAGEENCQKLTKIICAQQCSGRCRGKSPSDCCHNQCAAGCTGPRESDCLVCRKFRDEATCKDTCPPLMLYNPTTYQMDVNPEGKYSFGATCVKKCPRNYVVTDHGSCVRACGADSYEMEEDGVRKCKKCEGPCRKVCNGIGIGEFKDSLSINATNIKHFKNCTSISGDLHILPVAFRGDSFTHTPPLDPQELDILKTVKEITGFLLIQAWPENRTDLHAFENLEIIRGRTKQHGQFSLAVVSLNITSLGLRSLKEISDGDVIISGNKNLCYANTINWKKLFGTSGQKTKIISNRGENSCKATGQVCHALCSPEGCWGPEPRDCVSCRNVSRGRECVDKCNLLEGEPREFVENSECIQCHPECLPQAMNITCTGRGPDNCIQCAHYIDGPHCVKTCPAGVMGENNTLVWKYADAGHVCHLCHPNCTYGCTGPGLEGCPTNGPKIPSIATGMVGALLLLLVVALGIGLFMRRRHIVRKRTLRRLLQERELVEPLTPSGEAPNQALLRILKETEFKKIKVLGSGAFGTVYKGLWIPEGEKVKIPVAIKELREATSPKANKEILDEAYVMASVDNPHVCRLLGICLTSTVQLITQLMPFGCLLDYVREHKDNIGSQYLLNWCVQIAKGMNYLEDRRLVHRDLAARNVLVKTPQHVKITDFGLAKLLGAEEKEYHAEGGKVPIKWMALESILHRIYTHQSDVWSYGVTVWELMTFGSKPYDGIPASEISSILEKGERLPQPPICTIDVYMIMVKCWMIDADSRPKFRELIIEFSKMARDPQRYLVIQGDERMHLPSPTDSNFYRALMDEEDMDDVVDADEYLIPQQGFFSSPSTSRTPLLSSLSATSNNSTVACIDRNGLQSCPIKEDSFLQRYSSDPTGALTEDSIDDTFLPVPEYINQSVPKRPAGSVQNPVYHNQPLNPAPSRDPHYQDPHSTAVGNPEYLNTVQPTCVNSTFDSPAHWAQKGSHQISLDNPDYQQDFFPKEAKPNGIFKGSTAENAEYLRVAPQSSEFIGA

[6] = biological target: T3, Serine/threonine-protein kinase Sgk2 (Homo sapiens) (UniProt Q9HBY8); assay: Selectivity interaction (Upstate Kinase Profiler service (Millipore)) EUB0000056c SGK2; settings: at 1 µM
T3 sequence (whole entry): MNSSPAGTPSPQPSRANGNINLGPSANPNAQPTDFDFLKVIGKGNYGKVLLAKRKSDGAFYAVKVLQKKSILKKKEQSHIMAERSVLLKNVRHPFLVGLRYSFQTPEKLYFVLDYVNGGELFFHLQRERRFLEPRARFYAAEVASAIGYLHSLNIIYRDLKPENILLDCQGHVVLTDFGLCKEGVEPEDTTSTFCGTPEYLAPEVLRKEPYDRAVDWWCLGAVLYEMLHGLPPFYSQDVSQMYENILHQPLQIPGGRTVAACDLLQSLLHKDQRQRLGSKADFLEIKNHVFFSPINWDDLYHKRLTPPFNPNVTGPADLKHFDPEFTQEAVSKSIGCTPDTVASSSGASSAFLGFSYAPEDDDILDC

[7] = biological target: RAF proto-oncogene serine/threonine-protein kinase (Homo sapiens) (UniProt P04049); settings: at 10 µM
Chain of RAF proto-oncogene serine/threonine-protein kinase (Homo sapiens) (P04049 whole entry): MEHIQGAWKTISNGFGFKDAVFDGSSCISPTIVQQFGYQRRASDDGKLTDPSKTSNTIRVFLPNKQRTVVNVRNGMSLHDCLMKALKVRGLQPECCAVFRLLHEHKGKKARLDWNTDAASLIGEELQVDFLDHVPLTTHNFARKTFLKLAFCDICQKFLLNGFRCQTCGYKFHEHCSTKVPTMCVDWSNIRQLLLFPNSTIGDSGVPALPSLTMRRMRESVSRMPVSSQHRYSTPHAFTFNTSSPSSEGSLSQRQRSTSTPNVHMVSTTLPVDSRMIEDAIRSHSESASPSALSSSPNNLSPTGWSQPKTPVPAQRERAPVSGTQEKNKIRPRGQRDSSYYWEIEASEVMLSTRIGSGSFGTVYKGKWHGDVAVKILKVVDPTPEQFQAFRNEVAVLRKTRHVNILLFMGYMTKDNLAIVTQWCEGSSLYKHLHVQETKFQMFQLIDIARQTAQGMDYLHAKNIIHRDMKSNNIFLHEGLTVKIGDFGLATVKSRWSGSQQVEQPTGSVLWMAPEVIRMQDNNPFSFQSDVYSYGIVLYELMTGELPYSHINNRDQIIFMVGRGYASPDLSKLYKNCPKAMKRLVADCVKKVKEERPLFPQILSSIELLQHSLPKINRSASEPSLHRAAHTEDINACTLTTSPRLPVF

[8] = biological target: STE20-like serine/threonine-protein kinase (Homo sapiens, UniProt Q9H2G2); assay: Selectivity interaction (ActivX KiNativ screen (kinase selectivity in THP-1 cell lysates)) EUB0000639a SLK; format: subcellular; settings: lysate, at 0.2 µM
[9] = biological target: T2, Proto-oncogene tyrosine-protein kinase Src; assay: Selectivity interaction (KinomeScan (DiscoverX)) EUB0001049a SRC; settings: at 1 µM
[10] = biological target: T4, Tyrosine-protein kinase receptor TYRO3 (Homo sapiens) (UniProt Q06418); assay: Selectivity interaction (KinomeScan (DiscoverX)) EUB0001049a TYRO3; settings: at 1 µM
T4 sequence (whole entry): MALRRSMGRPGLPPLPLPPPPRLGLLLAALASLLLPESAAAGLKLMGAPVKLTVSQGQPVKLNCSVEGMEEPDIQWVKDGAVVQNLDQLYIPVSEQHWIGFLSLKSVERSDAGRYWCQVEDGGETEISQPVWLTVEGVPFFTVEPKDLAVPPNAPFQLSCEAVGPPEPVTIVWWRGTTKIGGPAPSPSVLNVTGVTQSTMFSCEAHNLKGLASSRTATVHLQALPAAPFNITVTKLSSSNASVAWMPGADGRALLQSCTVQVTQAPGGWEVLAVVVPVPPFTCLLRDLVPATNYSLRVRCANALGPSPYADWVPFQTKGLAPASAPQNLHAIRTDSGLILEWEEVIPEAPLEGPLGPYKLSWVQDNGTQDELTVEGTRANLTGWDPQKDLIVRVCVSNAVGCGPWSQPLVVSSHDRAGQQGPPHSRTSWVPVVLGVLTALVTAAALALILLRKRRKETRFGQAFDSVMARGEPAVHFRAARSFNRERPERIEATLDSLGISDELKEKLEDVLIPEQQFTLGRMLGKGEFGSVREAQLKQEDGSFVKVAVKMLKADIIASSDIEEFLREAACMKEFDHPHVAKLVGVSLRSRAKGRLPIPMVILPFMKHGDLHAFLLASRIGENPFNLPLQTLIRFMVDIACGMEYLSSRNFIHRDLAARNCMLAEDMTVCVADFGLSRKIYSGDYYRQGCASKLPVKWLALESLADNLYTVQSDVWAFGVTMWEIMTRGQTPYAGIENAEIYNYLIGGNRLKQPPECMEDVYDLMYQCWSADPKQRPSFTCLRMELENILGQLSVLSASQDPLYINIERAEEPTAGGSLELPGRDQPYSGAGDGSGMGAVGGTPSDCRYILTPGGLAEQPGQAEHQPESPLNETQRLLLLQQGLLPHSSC

[11] = biological target: Cyclin-dependent kinase 17 (Homo sapiens) (UniProt Q00537); assay: Selectivity interaction (KinomeScan (DiscoverX)) EUB0000666a CDK17; settings: at 10 µM
Chain of Cyclin-dependent kinase 17 (Homo sapiens) (Q00537 whole entry, looked up): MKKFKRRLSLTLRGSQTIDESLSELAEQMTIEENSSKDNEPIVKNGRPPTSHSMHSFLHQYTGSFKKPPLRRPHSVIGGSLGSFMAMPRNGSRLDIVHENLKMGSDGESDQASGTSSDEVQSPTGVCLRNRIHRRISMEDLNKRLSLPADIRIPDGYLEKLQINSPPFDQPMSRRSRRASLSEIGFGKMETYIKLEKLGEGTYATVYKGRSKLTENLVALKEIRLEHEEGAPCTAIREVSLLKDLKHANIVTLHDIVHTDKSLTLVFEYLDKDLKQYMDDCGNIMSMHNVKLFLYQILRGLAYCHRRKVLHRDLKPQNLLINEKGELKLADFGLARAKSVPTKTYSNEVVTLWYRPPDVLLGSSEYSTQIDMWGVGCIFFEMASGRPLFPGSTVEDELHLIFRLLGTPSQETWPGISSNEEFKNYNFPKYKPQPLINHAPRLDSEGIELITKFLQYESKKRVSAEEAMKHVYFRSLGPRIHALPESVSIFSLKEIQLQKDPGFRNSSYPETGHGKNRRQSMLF

[12] = biological target: BMP-2-inducible protein kinase (Homo sapiens) (UniProt Q9NSY1); assay: Selectivity interaction (KINOMEscan (DiscoverX)) EUB0001868a BMP2K; settings: at 1 µM
Chain of BMP-2-inducible protein kinase (Homo sapiens) (Q9NSY1 whole entry, looked up, the tested form may be a part): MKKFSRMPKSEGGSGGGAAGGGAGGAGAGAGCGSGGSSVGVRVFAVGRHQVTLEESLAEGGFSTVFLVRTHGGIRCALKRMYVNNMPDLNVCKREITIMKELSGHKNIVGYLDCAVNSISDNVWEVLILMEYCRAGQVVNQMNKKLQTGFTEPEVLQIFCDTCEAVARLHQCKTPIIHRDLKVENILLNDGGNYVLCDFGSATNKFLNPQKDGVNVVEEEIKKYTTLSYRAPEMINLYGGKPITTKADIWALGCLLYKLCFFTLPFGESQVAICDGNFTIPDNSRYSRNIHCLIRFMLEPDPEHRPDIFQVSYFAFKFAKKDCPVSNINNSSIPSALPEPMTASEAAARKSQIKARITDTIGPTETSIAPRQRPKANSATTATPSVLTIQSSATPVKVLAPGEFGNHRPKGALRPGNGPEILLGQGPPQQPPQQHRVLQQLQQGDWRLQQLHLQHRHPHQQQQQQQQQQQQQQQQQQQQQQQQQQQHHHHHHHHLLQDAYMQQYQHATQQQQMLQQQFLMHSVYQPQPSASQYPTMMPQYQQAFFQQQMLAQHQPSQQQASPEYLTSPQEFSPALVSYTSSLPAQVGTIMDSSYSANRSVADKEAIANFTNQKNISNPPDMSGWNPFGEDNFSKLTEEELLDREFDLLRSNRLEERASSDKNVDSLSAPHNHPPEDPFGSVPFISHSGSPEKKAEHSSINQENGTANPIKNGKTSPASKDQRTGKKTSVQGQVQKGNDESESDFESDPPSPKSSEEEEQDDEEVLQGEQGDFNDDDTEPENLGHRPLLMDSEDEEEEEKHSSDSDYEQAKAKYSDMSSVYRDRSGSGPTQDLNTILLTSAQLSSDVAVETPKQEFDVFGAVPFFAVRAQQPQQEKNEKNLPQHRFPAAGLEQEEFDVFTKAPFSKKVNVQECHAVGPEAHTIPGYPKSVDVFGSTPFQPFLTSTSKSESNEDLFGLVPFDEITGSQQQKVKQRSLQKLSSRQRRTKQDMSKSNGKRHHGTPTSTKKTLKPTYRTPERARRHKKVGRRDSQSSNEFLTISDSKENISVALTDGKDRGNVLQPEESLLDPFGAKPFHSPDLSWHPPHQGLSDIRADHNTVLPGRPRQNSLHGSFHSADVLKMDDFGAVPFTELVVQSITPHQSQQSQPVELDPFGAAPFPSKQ

[13] = biological target: LIM domain kinase 2 (Homo sapiens) (UniProt P53671); assay: Selectivity interaction (LanthaScreen Eu Kinase Binding Assay) EUB0001632a LIMK2; settings: at 10 µM
Chain of LIM domain kinase 2 (Homo sapiens) (P53671 whole entry, looked up, the tested form may be a part): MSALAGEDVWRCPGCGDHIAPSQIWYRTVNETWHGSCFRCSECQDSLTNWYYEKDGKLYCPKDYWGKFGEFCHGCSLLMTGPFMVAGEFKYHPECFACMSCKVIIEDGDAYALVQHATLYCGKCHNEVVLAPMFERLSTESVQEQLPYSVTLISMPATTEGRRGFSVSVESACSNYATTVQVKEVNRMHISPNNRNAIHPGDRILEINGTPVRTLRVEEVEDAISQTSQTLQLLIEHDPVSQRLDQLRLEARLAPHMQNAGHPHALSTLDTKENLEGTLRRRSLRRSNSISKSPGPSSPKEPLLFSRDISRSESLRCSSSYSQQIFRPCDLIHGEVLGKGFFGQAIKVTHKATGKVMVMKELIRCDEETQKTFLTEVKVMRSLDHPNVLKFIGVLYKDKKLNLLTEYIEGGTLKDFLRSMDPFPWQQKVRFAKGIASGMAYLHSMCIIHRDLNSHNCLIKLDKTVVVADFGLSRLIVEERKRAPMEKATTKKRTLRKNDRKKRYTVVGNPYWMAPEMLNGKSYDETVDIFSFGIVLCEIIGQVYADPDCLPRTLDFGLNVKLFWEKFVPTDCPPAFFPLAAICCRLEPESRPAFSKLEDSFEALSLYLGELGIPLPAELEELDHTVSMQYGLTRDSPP

Q: With Cc1cc(C)cc([C@@H]2c3cc(C)ccc3NC(=O)CN2C(=O)c2ccc(Br)s2)c1 as the compound, how does the % of activity ([1]; at 1 µM) read?
A: Its % of activity is 95.3%.

Q: And the % of activity ([1]; at 10 µM)?
A: Its % of activity is 95.7%.

Q: And the % of activity ([2]; at 1 µM)?
A: Its % of activity is 102%.

Q: What about the % of activity ([2]; at 10 µM) of the same compound?
A: The % of activity was 104%.

Q: For CN(C)CCOc1ccc(-c2nc(-c3ccncc3)c(-c3ccc4c(c3)CC/C4=N\O)[nH]2)cc1, which % of control [3] is on record?
A: Its % of control is 100%.

Q: And the % of control [4]?
A: Its % of control is 77%.

Q: For C=CC(=O)Nc1cc(-n2c(=O)ccc3cnc4ccc(-c5ccc(NS(C)(=O)=O)cc5)cc4c32)ccc1C, which % of control [5] is on record?
A: The % of control was 89%.

Q: Which % of inhibition [6] does the source give for Cc1ccc(-c2ccc3c(ccc4sc5c(c43)NC[C@@H](C)NC5=O)n2)cn1 here?
A: Its % of inhibition is 3%.

Q: How did the % of control [7] turn out when Cc1cc([C@@H](C)Nc2ccccc2C(=O)O)c2nc(N3CCOCC3)cc(=O)n2c1 [AZD-6482] was run?
A: The % of control was 100%.

Q: How did the % of inhibition [8] turn out when CC[C@@H]1[C@H](F)C(=O)N[C@@H]1COc1nccc2cc(C(N)=O)c(OC)cc12 [ZIMLOVISERTIB] was run?
A: The % of inhibition was -1.2%.

Q: COc1cc(Nc2nc(C)cc(-c3cnn4nc(OC)ccc34)n2)cc(C(F)(F)F)c1 was tested. Which % of control [9] did it give?
A: The % of control was 100%.

Q: What about the % of control [10] of the same compound?
A: The % of control was 76%.

Q: O=C(NOC[C@H](O)CO)c1ccc(F)c(F)c1Nc1ccc(I)cc1F was tested. Which % of control [11] did it give?
A: Its % of control is 95%.

Q: How did the % of control [12] turn out when Cc1cc(-c2ccnc(Nc3cnn(C)c3)n2)ccc1CNC(=O)N1CC(OC(C)C)C1 was run?
A: Its % of control is 18%.

Q: With Cn1cc(-n2cnc3c(NCc4nc5cc(Cl)c(Cl)cc5[nH]4)nc(N4CCOCC4)nc32)cn1 as the compound, how does the % of inhibition [13] read?
A: The % of inhibition was -10.5%.
